From ChEMBL document CHEMBL1201862, “PubChem BioAssay data set” (2004) come the findings set out here.

Among the test systems are ACHN; SF-268; SK-MEL-5; LOX IMVI; SF-295; HT-29; Malme-3M; TK-10; RPMI-8226; SK-MEL-28; 786-0; MOLT-4; K562; OVCAR-5; A498; HOP-62.
What all share (assay): DTP human tumour cell line panel, 48 h

In general, GI50 refers to the concentration that inhibits growth by half.

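Step 1: Grow cells in 96-well plates. Step 2: Expose to compound for 48 hours at 5 concentrations. Step 3: Interpolate endpoints linearly; if unreached, use highest concentration. GI50 = concentration required for 50% inhibition of growth.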 Calls of active or inactive are those of the source. Cut-off read from the data, not from the text of the source: active = GI50 up to about 1.1 µM and inactive = higher. Where only a bound is given, the exact number is not on record here.

As to `O=C(Nc1c(O)[nH]c(=S)[nH]c1=O)c1ccccc1F`, the GI50 with ACHN, in the assay with SF-268, with SK-MEL-5, with LOX IMVI, in the assay on SF-295 and with HT-29 was > 100 µM (inactive) throughout. The GI50 with Malme-3M, with TK-10, in the assay on RPMI-8226, in the assay with SK-MEL-28, in the assay with 786-0 and with MOLT-4 was > 100 µM (inactive) throughout. For the same compound, the GI50 with K562, with OVCAR-5, in the assay with A498 and in the assay on HOP-62 was > 100 µM (inactive) each time.
On to `COC(=O)C12C34C=CC5(CCC6(C=CC1(CC3)O6)C52C(=O)OC)O4` (stereo not given), for which the GI50 in the assay with ACHN, with SF-268, in the assay on LOX IMVI, in the assay on SF-295, in the assay with HT-29 and with Malme-3M was > 100 µM (inactive) each time. The GI50 with TK-10, in the assay with SK-MEL-28, in the assay with 786-0, in the assay on MOLT-4, with K562 and with OVCAR-5 was > 100 µM (inactive) each time. Also, the GI50 with A498 was 93.3 µM (inactive); with HOP-62 it was > 100 µM (inactive).
Take `CCOc1ccc(NC(=O)CCc2nnc(SC)o2)cc1`: the GI50 with ACHN, in the assay on SF-268, with SK-MEL-5, with LOX IMVI, in the assay with SF-295 and with HT-29 was > 100 µM (inactive) in each case. Also, the GI50 in the assay with Malme-3M, with TK-10, in the assay with SK-MEL-28, in the assay with 786-0, in the assay with MOLT-4 and in the assay on K562 was > 100 µM (inactive) throughout. Moreover, the GI50 in the assay on OVCAR-5, with A498 and in the assay on HOP-62 was > 100 µM (inactive) each time.
Consider `CCCCCCCCCCCCCCCCOC(=O)c1cc(O)cc(C(=O)OCCCCCCCCCCCCCCCC)c1`, for which the GI50 in the assay with ACHN, in the assay with SF-268, in the assay with SK-MEL-5, in the assay on LOX IMVI, in the assay on SF-295 and in the assay with HT-29 was > 100 µM (inactive) throughout. For the same compound, the GI50 with Malme-3M, in the assay with TK-10, in the assay on RPMI-8226, in the assay with SK-MEL-28, with 786-0 and with MOLT-4 was > 100 µM (inactive) in each case. Further, the GI50 in the assay on K562, in the assay on OVCAR-5 and in the assay on A498 was > 100 µM (inactive) each time.
As to `Cc1cc(C)c(C(=O)/C(=C/c2ccccc2)c2ccccc2)c(C)c1`, the GI50 with ACHN is 40.7 µM (inactive); in the assay with SF-268 it was 76.2 µM (inactive); with SK-MEL-5, > 100 µM (inactive); in the assay on SF-295, 51.6 µM (inactive); with HT-29, 28.2 µM (inactive); in the assay on Malme-3M, 18.2 µM (inactive). Further, the GI50 in the assay on TK-10 is 93.5 µM (inactive); with RPMI-8226, 37.1 µM (inactive); in the assay with SK-MEL-28, > 100 µM (inactive); with 786-0, 56.2 µM (inactive); with MOLT-4, 29 µM (inactive); in the assay with K562, 36.3 µM (inactive). The GI50 in the assay with HOP-62 was > 100 µM (inactive).
Take `CCSC1=CC(Cc2ccc(OC)cc2)N(C(=O)OC)C1` (stereo not given): the GI50 in the assay with ACHN is > 100 µM (inactive); in the assay with SF-268, > 100 µM (inactive); in the assay with SK-MEL-5 it was 49.4 µM (inactive); in the assay on LOX IMVI, 36.3 µM (inactive); in the assay with SF-295, > 100 µM (inactive); in the assay on HT-29, 94.2 µM (inactive). Moreover, the GI50 in the assay on Malme-3M is > 100 µM (inactive); with TK-10 it was > 100 µM (inactive); in the assay with SK-MEL-28, > 100 µM (inactive); with 786-0, > 100 µM (inactive); with MOLT-4, > 100 µM (inactive); in the assay with K562, 34.3 µM (inactive). The GI50 in the assay with OVCAR-5, in the assay with A498 and with HOP-62 was > 100 µM (inactive) throughout.
As for `Cc1cc(-c2ccccc2)cc2[n+]1CC=C2.[O-][Cl+3]([O-])([O-])[O-]`, the GI50 in the assay on ACHN is 51.4 µM (inactive); in the assay on SF-268 it was > 100 µM (inactive); in the assay with LOX IMVI, > 100 µM (inactive); with SF-295, > 100 µM (inactive); in the assay with HT-29, 52.7 µM (inactive); in the assay on Malme-3M it was 75 µM (inactive). The GI50 was 46.6 µM (inactive) in the assay with TK-10; > 100 µM (inactive) in the assay on SK-MEL-28; > 100 µM (inactive) in the assay on 786-0; > 100 µM (inactive) in the assay with OVCAR-5; > 100 µM (inactive) in the assay on HOP-62.
As to `O=C1C2C3C=C4c5ccccc5N(c5ccccc5)C4(C2C(=O)N1c1ccc(Br)cc1)[C@H]1C(=O)N(c2ccc(Br)cc2)C(=O)[C@@H]31` (stereo not given in full), the GI50 in the assay on SK-MEL-5 is > 100 µM (inactive); in the assay with LOX IMVI, 87.9 µM (inactive); in the assay with SF-295, > 100 µM (inactive); with HT-29 it was > 100 µM (inactive); in the assay with Malme-3M, > 100 µM (inactive); in the assay on TK-10 it was 89.3 µM (inactive). For the same compound, the GI50 was 3.41 µM (inactive) in the assay with RPMI-8226; > 100 µM (inactive) with 786-0; 8.89 µM (inactive) in the assay on MOLT-4; > 100 µM (inactive) with K562; > 100 µM (inactive) in the assay on OVCAR-5; > 100 µM (inactive) in the assay with A498. Also, the GI50 with HOP-62 is > 100 µM (inactive).
On to `COC(=O)[C@@]12OC[C@]34C([C@@H](O)C1O)[C@@]1(C)CC(=O)C(OC(=O)/C=C(/c5ccccc5)C(F)(F)F)=C(C)C1C[C@H]3OC(=O)[C@H](O)[C@H]42` (stereo not given in full), for which the GI50 is 13.9 µM (inactive) in the assay with ACHN; 11.2 µM (inactive) with SF-268; 4.83 µM (inactive) in the assay with SK-MEL-5; 7.93 µM (inactive) in the assay on SF-295; 6.76 µM (inactive) in the assay with HT-29; 7.91 µM (inactive) with Malme-3M. Besides, the GI50 is 10.1 µM (inactive) in the assay with TK-10; 2.06 µM (inactive) in the assay with RPMI-8226; 5.31 µM (inactive) in the assay with SK-MEL-28; 9.04 µM (inactive) in the assay on 786-0; 2.14 µM (inactive) with MOLT-4; 9.4 µM (inactive) with K562. The GI50 with OVCAR-5 was 21.8 µM (inactive); in the assay with A498, 0.52 µM (active); in the assay with HOP-62, 12.4 µM (inactive).
Consider `CC(C)S(=O)(=O)ON1C(=O)c2ccc([N+](=O)[O-])cc2C1=O`, for which the GI50 in the assay with ACHN, in the assay on SF-268, in the assay with SK-MEL-5, with SF-295, with HT-29 and in the assay with Malme-3M was > 100 µM (inactive) throughout. Besides, the GI50 in the assay with TK-10, with SK-MEL-28, in the assay with 786-0, in the assay with K562, with OVCAR-5 and in the assay on A498 was > 100 µM (inactive) in each case. For the same compound, in the assay on HOP-62, the GI50 was > 100 µM (inactive).
